In US20150210740A1, “PSEUDOURIDIMYCIN (PUM) AND ITS DERIVATIVES” (NEW-ANTI-INFECTIVES CONSORTIUM S.C.A.R.L., priority 2012, published 2015):
In brackets after ≈: the same amount, converted by molar mass. Where two headings read alike, the source gives them in different places.

Key:
E. coli RNAP = molecular target: T1, E. coli RNAP (Escherichia coli, UniProt P0A8T7+P0A8V2); test: RNAP inhibition, E. coli RNAP; format: biochemical
T1 construct: an RNAP purified from either Escherichia coli (Sigma Aldrich) or Bacillus subtilis; purchased Sigma Aldrich; host or cells: Escherichia coli
Protocol: (§1) The effect of PUM on bacterial RNAP is measured using an RNAP purified from either Escherichia coli (Sigma Aldrich) or Bacillus subtilis as described by Qi and Hulett (Qi Y, Hulett F M., Mol. Microbiol. 1998, 28(6):1187-1197). The bacterial RNAPs are used at 1.1 mg/ml, while the RNAP from bacteriophage T7 (Promega Corporation) is used at 20 U/ml. The nuclear extracts from HeLa cells (Human cervix carcinoma fibroblast; Promega Corporation) or NSO cells (non IgG secreting mouse myeloma lymphoblast; prepared as described by Dignam J D, Lebovitz R M, Roeder R G., Nucleic Acids Res. 1983, 11(5):1475-89) are used at 18 mg/ml. The reaction mixtures (50 μl) contain 40 mM Tris-HCl (pH 7.9), 6 mM MgCl2, 2 mM spermidine, 10 mM NaCl, 10 mM DTT, 10 μg/ml bovine serum albumin, 100 μM ATP, CTP and GTP, 2 μM UTP, 0.5 μCi [α-^32P]UTP, PUM at the desired concentration, RNAP and template DNA. The templates used for the transcription are the plasmid pGEM3Z (20 nM; Promega Corporation) for the bacterial and phagic RNAPs, and DNA derived from calf thymus (20 μg/ml; Sigma Aldrich) for the eukaryotic polymerases. After 30 min. (bacterial and phagic RNAPs) or 60 min. at 37° C., the amount of radioactivity obtained after precipitation with trichloroacetic acid is measured as previously described (Mariani R, Granata G, Maffioli S I, Serina S, Brunati C, Sosio M, Marazzi A, Vannini A, Patel D, White R, Ciabatti R. Bioorg Med Chem Lett. 2005, 15(16):3748-3752).

B. subtilis RNAP = molecular target: T2, B. subtilis RNAP (Bacillus subtilis, UniProt P37870+P37871); test: RNAP inhibition, B. subtilis RNAP; format: biochemical
T2 construct: an RNAP purified from either Escherichia coli (Sigma Aldrich) or Bacillus subtilis; made in house; host or cells: Bacillus subtilis
Protocol: as §1

B. subtilis β(Q469R) = B. subtilis β(Q469R) (Bacillus subtilis, UniProt P37870+P37871, Q469R); test: RNAP inhibition, rifampicin-resistant B. subtilis RNAP; format: biochemical
HeLa nuclear extract = test: RNAP inhibition, HeLa nuclear extract; format: biochemical, Human
NSO nuclear extract = test: RNAP inhibition, NSO nuclear extract; format: biochemical, mouse
T7 RNAP = molecular target: T3, T7 RNAP (Escherichia phage T7, UniProt P00573); test: RNAP inhibition, T7 RNAP; format: biochemical, bacteriophage T7
T3 construct: purchased Promega Corporation
Protocol: as §1, with “The templates used for the transcription are the plasmid pGEM3Z (20 nM; Promega Corporation) for the bacterial and phagic RNAPs, and DNA derived from calf thymus (20 μg/ml; Sigma Aldrich) for the eukaryotic polymerases. After 30 min.” left out

bacterial RNAP [1] = test system: T4, bacterial RNAP; test: Inhibition of bacterial RNAP; format: biochemical; conditions: RNAP of both Gram-positive and Gram-negative bacteria; read-out: IC50 (concentration producing 50% inhibition of enzyme activity), bacterial RNAP
T4 construct: other: RNAP of both Gram-positive and

Streptococcus pyogenes = test: Growth inhibition (MIC), Streptococcus pyogenes; format: cell-based; conditions: Streptococcus pyogenes L49
Protocol: (§2) The antibacterial activity is determined by evaluating the effect on the growth kinetics as described (Holowachuka S, Bal'ab M, Buddington R., 2003, J. Microbiol. Meth. 55, 441-446). Micro-organisms are grown in either Todd Hewitt medium (Streptococcus pyogenes) or cation-adjusted Mueller Hinton Broth (S. aureus, E. faecium, M catarrhalis, E. coli, P. aeruginosa, S. maltophilia) on 96-well microtiter plates. Each bacterial strain is inoculated with 5×10^4 CFU/ml and incubated at 37° C. on the Synergy 2 reader (BioTek), and the optical density is monitored at 595 nm for 48 h.

Streptococcus pneumoniae = test: Growth inhibition (MIC), Streptococcus pneumoniae; format: cell-based
Protocol: [Worded in the source for another organism; used here, by the source, with some conditions changed.] as §2

[2] = test system: Neisseria meningitidis L1612; test: Growth inhibition (MIC), Neisseria meningitidis; format: cell-based
[3] = test system: Haemophilus influenzae L3296; test: Growth inhibition (MIC), Haemophilus influenzae; format: cell-based
[4] = test system: Moraxella catarrhalis L3294; test: Growth inhibition (MIC), Moraxella catarrhalis; format: cell-based
Protocol: as §2

S. pyogenes C203 = test: S. pyogenes peritonitis model in mice; format: in vivo, ICR female mice; conditions: for ED50: Streptococcus pyogenes
Protocol: ICR female mice (Harlan Italia) weighing 23-25 g are acclimated (23±2° C., humidity, 55±10% humidity) for one week before the experiment. The infection is induced by intraperitoneal injection of 4×10^3 CFU of S. pyogenes […] in 0.5 mL of saline containing 1% peptone. 48-72 h after infection, this inoculum leads to a mortality of at least 95% in untreated controls. Eight mice per group for each dose are treated with 0.25 mL of PUM prepared in 5% dextrose. Two different experiments were performed: in the first experiment, PUM is administered intravenously 10 min. after the infection and 6 hours later; in the second experiment, PUM is administered as a single intravenous or subcutaneous dose 10 min. after infection. The mortality of the animals is recorded daily. The ED50 (50% effective dose) and 95% confidence limits are calculated as described (Finney, D. J. 1952. The Spearman-Kärber method. P. 524-30. In D. J. Finney (ed.) Statistical method in biological assay. Charles Griffin & Company Limited, London) for surviving animals at day 7 at each dose.

[5] = test system: Gram-positive and Gram-negative susceptible, resistant and multi-resistant pathogenic bacteria; test: Growth inhibition of pathogenic bacteria; format: cell-based; conditions: human serum 30%
Protocol: as §2

bacterial RNAP [6] = molecular target: T5, bacterial RNAP (UniProt P0A8T7+P0A8V2); test: Inhibition of bacterial RNAP; format: biochemical; conditions: read-out: IC50, bacterial RNAP; reaction mixture used as is for the bioactivity tests
T5 construct: other: reaction mixture used as is for the bioactivity tests

T1 sequence (P0A7Z4 whole entry): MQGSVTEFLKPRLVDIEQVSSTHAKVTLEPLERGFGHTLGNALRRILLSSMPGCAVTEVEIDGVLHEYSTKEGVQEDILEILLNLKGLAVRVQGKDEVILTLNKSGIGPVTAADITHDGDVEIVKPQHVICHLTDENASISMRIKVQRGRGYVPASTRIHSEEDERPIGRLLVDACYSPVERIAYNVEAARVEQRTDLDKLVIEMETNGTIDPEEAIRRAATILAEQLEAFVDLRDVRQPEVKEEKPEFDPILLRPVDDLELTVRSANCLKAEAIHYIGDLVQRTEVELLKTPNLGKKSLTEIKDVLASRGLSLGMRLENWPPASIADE
T1 sequence (P0A800 whole entry, further chain): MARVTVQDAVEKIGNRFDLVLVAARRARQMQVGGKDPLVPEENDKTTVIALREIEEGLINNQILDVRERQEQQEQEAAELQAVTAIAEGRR
T1 sequence (P0A8V2 whole entry): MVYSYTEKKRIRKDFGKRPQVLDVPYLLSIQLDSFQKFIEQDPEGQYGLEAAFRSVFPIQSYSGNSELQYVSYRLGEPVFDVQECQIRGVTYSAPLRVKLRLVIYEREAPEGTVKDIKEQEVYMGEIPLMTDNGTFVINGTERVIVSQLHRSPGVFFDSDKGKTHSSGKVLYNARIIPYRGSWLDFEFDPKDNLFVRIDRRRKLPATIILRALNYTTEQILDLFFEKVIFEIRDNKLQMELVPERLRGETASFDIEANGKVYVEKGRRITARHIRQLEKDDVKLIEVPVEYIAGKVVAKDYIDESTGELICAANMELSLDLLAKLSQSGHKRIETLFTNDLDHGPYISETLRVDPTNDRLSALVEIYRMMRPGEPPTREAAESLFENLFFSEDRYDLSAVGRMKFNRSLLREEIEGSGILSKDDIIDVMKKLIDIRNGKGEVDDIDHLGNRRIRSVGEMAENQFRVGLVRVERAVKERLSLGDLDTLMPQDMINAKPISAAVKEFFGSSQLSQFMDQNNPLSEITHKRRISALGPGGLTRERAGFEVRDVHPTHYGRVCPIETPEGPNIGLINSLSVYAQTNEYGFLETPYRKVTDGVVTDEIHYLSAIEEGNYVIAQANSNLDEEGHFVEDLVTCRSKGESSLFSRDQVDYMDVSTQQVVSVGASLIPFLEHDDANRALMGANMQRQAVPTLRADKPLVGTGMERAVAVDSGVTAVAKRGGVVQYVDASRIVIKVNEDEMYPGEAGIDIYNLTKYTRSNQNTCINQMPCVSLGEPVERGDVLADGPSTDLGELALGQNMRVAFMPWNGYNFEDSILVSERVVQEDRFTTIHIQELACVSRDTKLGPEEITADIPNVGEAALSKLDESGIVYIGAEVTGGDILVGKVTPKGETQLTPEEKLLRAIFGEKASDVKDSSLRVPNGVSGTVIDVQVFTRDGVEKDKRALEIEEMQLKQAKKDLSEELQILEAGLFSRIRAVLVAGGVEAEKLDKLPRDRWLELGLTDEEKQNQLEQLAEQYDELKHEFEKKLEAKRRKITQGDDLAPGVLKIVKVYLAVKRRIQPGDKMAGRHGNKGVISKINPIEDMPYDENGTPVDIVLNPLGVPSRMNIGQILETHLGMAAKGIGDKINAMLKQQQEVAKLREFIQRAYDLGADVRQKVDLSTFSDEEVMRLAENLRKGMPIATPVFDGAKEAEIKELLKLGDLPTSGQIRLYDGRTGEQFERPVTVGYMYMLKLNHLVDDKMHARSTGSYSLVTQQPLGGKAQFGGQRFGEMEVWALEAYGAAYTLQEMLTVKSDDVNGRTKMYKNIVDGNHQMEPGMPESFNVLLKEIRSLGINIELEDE
T1 sequence (P0A8T7 whole entry): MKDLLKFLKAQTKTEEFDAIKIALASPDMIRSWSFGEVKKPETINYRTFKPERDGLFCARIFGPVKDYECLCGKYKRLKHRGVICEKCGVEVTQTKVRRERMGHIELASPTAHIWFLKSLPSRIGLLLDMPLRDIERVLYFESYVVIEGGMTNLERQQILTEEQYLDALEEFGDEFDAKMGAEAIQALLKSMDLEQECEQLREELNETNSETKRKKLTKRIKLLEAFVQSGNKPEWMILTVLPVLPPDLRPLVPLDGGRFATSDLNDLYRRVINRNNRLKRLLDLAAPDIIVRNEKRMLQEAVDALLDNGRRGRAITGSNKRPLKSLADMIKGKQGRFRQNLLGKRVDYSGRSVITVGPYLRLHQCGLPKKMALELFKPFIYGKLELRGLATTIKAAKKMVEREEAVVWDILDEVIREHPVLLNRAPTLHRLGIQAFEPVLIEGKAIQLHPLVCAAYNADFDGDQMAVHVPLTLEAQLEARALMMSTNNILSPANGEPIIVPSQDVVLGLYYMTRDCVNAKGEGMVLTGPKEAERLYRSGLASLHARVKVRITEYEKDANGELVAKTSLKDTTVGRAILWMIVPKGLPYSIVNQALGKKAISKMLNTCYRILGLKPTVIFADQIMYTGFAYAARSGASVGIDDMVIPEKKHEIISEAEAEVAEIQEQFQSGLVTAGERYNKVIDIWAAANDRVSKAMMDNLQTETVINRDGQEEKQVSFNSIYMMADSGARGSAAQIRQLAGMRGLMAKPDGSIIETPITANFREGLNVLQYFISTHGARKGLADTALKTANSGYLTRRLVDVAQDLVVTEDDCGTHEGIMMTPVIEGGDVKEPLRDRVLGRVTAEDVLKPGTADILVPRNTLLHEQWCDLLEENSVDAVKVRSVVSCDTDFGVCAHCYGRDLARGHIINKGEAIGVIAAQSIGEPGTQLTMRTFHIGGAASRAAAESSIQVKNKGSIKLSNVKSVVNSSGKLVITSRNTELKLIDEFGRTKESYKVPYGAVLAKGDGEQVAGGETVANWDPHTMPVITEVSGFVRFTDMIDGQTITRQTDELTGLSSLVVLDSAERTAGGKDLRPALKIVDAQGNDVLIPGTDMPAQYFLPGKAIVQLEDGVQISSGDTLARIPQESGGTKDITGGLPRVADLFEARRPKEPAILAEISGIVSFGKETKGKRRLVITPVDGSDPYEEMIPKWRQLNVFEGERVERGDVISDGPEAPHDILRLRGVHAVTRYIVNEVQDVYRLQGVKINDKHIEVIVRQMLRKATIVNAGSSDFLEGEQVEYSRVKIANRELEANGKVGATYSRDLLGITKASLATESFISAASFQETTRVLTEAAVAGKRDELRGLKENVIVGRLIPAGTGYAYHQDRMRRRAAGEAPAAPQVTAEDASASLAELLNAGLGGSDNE
T3 sequence (P00573 whole entry): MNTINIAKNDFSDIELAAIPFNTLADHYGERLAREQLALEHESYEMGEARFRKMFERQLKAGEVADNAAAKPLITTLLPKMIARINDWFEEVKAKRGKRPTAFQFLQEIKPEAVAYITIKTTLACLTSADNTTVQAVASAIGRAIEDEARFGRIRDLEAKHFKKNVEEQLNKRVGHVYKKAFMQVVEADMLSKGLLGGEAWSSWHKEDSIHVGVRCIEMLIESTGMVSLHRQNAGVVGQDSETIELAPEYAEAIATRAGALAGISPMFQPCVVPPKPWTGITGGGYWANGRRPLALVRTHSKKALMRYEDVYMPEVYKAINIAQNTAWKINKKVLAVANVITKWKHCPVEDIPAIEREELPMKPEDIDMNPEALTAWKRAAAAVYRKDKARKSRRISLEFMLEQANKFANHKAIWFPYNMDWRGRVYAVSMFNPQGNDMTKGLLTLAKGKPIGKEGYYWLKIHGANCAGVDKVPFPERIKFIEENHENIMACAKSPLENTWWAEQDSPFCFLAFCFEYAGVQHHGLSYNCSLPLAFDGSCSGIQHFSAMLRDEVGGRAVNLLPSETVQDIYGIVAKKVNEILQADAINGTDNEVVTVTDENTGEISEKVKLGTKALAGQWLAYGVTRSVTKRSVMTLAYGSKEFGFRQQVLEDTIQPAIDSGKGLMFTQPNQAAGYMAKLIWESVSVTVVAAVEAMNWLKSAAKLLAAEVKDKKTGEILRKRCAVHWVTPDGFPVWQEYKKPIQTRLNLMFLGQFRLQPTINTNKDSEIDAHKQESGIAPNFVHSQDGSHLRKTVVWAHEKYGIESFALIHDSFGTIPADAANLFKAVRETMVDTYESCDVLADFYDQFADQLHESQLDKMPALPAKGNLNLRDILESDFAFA

CCc1c(Cl)c(O)c(Cl)c(O)c1C(=O)O[C@H]1[C@H](O)[C@H](OC)[C@H](OC/C2=C\C=C\C[C@H](O)/C(C)=C/[C@H](CC)[C@@H](O[C@@H]3OC(C)(C)[C@@H](OC(=O)C(C)C)[C@H](O)[C@@H]3O)/C(C)=C/C(C)=C/C[C@@H]([C@@H](C)O)OC2=O)O[C@@H]1C [Fdx, fidaxomicin, reference compound]
IC50 (E. coli RNAP): 5500 nM
IC50 (B. subtilis RNAP): 900 nM
IC50 (B. subtilis β(Q469R)): 700 nM
IC50 (HeLa nuclear extract): > 92000 nM
IC50 (NSO nuclear extract): 42000 nM

N=C(N)NCC(=O)N(O)[C@@H](CCC(N)=O)C(=O)NC[C@H]1O[C@@H](c2c[nH]c(=O)[nH]c2=O)[C@H](O)[C@@H]1O [PUM, Pseudouridimycin]
IC50 (E. coli RNAP): 300 nM
IC50 (B. subtilis RNAP): 400 nM
IC50 (B. subtilis β(Q469R)): 100 nM
cross-resistance with rifampicin (B. subtilis β(Q469R); RNAP inhibition, Table 1): without showing any cross-resistance with rifampicin
IC50 (HeLa nuclear extract): > 74000 nM
IC50 (NSO nuclear extract): 205000 nM
IC50 (T7 RNAP): > 205000 nM
IC50 (bacterial RNAP [1]): 300 to 400 nM
MIC (Streptococcus pyogenes; human serum 30% present): 2 µg/mL
MIC (Streptococcus pyogenes; human serum absent, read-out: MIC): 2 µg/mL
MIC (Streptococcus pneumoniae; Streptococcus pneumoniae L44, human serum 30% present): 2 µg/mL
MIC (Streptococcus pneumoniae; Streptococcus pneumoniae L44, human serum absent): 3 µg/mL
MIC (Streptococcus pneumoniae; Streptococcus pneumoniae L899-Rif^R, human serum absent): 3 µg/mL
MIC (Streptococcus pneumoniae; Streptococcus pneumoniae L1407-Azi^R, human serum absent): 3 µg/mL
MIC (Streptococcus pneumoniae; Streptococcus pneumoniae L1542-Ami^REry^RCli^RGen^RTet^R, human serum absent): 3 µg/mL
MIC (Streptococcus pneumoniae; Streptococcus pneumoniae L2868-8 MDR, human serum absent): 3 µg/mL
MIC (Streptococcus pneumoniae; Streptococcus pneumoniae L3909-Pen^REry^RChl^RCtr^R, human serum absent): 2 µg/mL
MIC (Streptococcus pneumoniae; Streptococcus pneumoniae ND061311-Pen^RAzi^R, human serum absent): 3 µg/mL
MIC [2]: 10 µg/mL (≈ 20.6 µM)
MIC [3]: 0.8 µg/mL (≈ 1.64 µM)
MIC [4]: 0.8 µg/mL
ED50 (S. pyogenes C203; C203, iv, iv: 10 min. and 6 h post-infection, survival at day 7): 10 mg/kg
ED50 (S. pyogenes C203; C203, iv, iv: 10 min. post-infection, survival at day 7): 20 mg/kg
ED50 (S. pyogenes C203; C203, murine model of Streptococcus peritonitis, regimen not given): 10 mg/kg
ED50 (S. pyogenes C203; C203, sc, sc: 10 min. post-infection, survival at day 7): 20 mg/kg
effectiveness after intravenous versus subcutaneous administration (S. pyogenes C203; murine Streptococcus peritonitis): comparable effectiveness
effect of human serum on antibacterial activity [5]: not affected by the presence of human serum

CO[C@H]1/C=C/O[C@@]2(C)Oc3c(C)c(O)c4c(O)c(c(/C=N/N5CCN(C)CC5)c(O)c4c3C2=O)NC(=O)/C(C)=C\C=C\[C@H](C)[C@H](O)[C@@H](C)[C@@H](O)[C@@H](C)[C@H](OC(C)=O)[C@@H]1C [Rif, rifampicin, reference compound]
IC50 (E. coli RNAP): 60 nM
IC50 (B. subtilis RNAP): 50 nM
IC50 (B. subtilis β(Q469R)): > 121000 nM
IC50 (T7 RNAP): > 121000 nM

N=C(N)NCC(=O)N(O)[C@@H](CCC(=O)NCc1ccccc1)C(=O)NC[C@H]1O[C@@H](c2c[nH]c(=O)[nH]c2=O)[C@H](O)[C@@H]1O [compound III, PUM benzylamide]
IC50 (bacterial RNAP [6]): 4000 nM
